Experimental data reported in patent US4175081A, “5-Substituted thiadiazole ureas” (priority 1977, dated 1979).

Key:
Johnson grass (JG) [1] = assay: Pre-emergence herbicide test; assay type: in vivo, Sorgum helepense; details: Sorghum halepense, 336 h, two weeks after treatment; for pest or weed control at 8966.8 g/ha: 8 lb/acre
Description: (§1) Johnson grass (JG)--Sorgum helepense
(§2) All crop and weed species were planted individually in 3' plastic pots containing potting soil. Four seeds each of corn, cotton, and snapbeans were seeded to a depth equal to the diameter of the seed. All other species were surface seeded and sprinkled with screened soil in an amount sufficient to cover the seed. Immediately after planting, all pots were watered by sub-irrigation in greenhouse trays. Pots for the pre-emergence phase were seeded one day before treatment.
(§3) Compounds were tested at rates of application equivalent to 8 lbs. of actual compound per acre in a spray volume of 38 gallons per acre. Spray hood constants required to deliver the above volume are as follows:
(§4) Formulations for spray applications were prepared in 50 ml volumes with the following three components:
(§5) Formulations for the 4 lbs/acre rate were prepared by adjusting the amount of active ingredient accordingly.
(§6) Spray applications were made in a hood containing a removable belt and fixed spray nozzle. For passage through the spray hood, one pot of each specie (pre-emergence phase) was placed on the rear half of the flat. Treatments were removed to the greenhouse after spraying. Watering during the observation period was done only by sub-irrigation.
(§7) Two weeks after treatment, pre- and post-emergence injury or control was visually rated, and the results were as shown in the following tables. Pre-emergence data are provided in TABLE III and post-emergence data are provided in TABLE IV, for compounds having the formula illustrated in TABLE I. Correspondingly, pre-emergence and post-emergence data, respectively, are set forth in TABLES V AND VI, for compounds having the formula illustrated in TABLE II.

Bean (BN) [2] = assay: Pre-emergence herbicide test; assay type: in vivo, Phaseolus vulgaris var. Black Valentine; details: Phaseolus vulgaris, 336 h, 8 lb/acre, two weeks after treatment
Description: (§8) Bean (BN)--Phaseolus vulgaris var. Black Valentine
as §2, §3, §4, §5, §6, §7

Barnyard grass (BG) [3] = assay: Pre-emergence herbicide test; assay type: in vivo; details: Echinochloa crus-galli, 336 h, two weeks after treatment; for pest or weed control at 8966.8 g/ha: 8 lb/acre
Description: (§9) Barnyard grass (BG)--Echinochloa crus-galli
as §2, §3, §4, §5, §6, §7

Johnson grass (JG) [4] = assay: Post-emergence herbicide test; assay type: in vivo, Sorgum helepense; details: Sorghum halepense, 336 h, 8 lb/acre, two weeks after treatment
Description: as §1, §2
(§10) Planting dates for the post-emergence phase were varied so that all seedlings would reach the desired stage of development simultaneously. The proper stage of seedling development for treatment in the post-emergence phase is as follows:
as §3, §4, §5, §6, §7

Crabgrass (CG) [5] = assay: Post-emergence herbicide test; assay type: in vivo, Digitaria sanquinalis; details: Digitaria sanguinalis, post-emergence, 336 h, two weeks after treatment; for pest or weed control at 8966.8 g/ha: 8 lb/acre; for pest or weed control at 4483.4 g/ha: 4 lb/acre
Description: (§11) Crabgrass (CG)--Digitaria sanquinalis
as §2, §10
(§12) Spray hood constants required to deliver the above volume are as follows:
(§13) Formulations for spray applications were prepared in 50 ml volumes with the following three components: […]
as §6, §7

Corn (CN) [6] = assay: Pre-emergence herbicide test; assay type: in vivo; details: Zea mays, 336 h, 8 lb/acre, two weeks after treatment
Description: as §2, §3, §4, §5, §6, §7

Corn (CN) [7] = assay: Post-emergence herbicide test; assay type: in vivo; details: Zea mays, 336 h, 8 lb/acre, two weeks after treatment
Description: as §2, §10, §3, §4, §5, §6, §7

Cotton (CT) [8] = assay: Pre-emergence herbicide test; assay type: in vivo, Gossypium hirsutum var. DPL smooth leaf; details: Gossypium hirsutum, 336 h, 8 lb/acre, two weeks after treatment
Description: (§14) Cotton (CT)--Gossypium hirsutum var. DPL smooth leaf
as §2, §3, §4, §5, §6, §7

Turnip (TP) [9] = assay: Post-emergence herbicide test; assay type: in vivo, Brassica sp.; details: Brassica rapa, post-emergence, 336 h, two weeks after treatment; for pest or weed control at 8966.8 g/ha: 8 lb/acre; for pest or weed control at 4483.4 g/ha: 4 lb/acre
Description: (§15) Turnip (TP)--Brassica sp.
as §2, §10
Pigweed and turnips: 1 or 2 true leaves above visible cotyledons.
as §12, §13, §6, §7

Turnip (TP) [10] = assay: Pre-emergence herbicide test; assay type: in vivo, Brassica sp.; details: Brassica rapa, pre-emergence, 336 h, two weeks after treatment; for pest or weed control at 8966.8 g/ha: 8 lb/acre; for pest or weed control at 4483.4 g/ha: 4 lb/acre
Description: as §15, §2, §12, §13, §6, §7

Bean (BN) [11] = assay: Post-emergence herbicide test; assay type: in vivo, Phaseolus vulgaris var. Black Valentine; details: Phaseolus vulgaris, post-emergence, 336 h, two weeks after treatment; for pest or weed control at 8966.8 g/ha: 8 lb/acre; for pest or weed control at 4483.4 g/ha: 4 lb/acre
Description: as §8, §2, §10
Beans: primary leaves expanded, growing point at primary leaf nodes.
as §12, §4, §5, §6, §7

Barnyard grass (BG) [12] = assay: Post-emergence herbicide test; assay type: in vivo; details: Echinochloa crus-galli, 336 h, 8 lb/acre, two weeks after treatment
Description: as §9, §2, §10, §3, §4, §5, §6, §7

Crabgrass (CG) [13] = assay: Pre-emergence herbicide test; assay type: in vivo, Digitaria sanquinalis; details: Digitaria sanguinalis, pre-emergence, 336 h, two weeks after treatment; for pest or weed control at 8966.8 g/ha: 8 lb/acre; for pest or weed control at 4483.4 g/ha: 4 lb/acre
Description: as §11, §2, §12, §13, §6, §7

Cotton (CT) [14] = assay: Post-emergence herbicide test; assay type: in vivo, Gossypium hirsutum var. DPL smooth leaf; details: Gossypium hirsutum, post-emergence, 336 h, two weeks after treatment; for pest or weed control at 8966.8 g/ha: 8 lb/acre; for pest or weed control at 4483.4 g/ha: 4 lb/acre
Description: as §14, §2, §10
Cotton: first true leaf 1' in length; expanded cotyledons.
as §12, §4, §5, §6, §7

Compound	pest or weed control at 8966.8 g/ha (Johnson grass (JG) [1])	pest or weed control at 8966.8 g/ha (Bean (BN) [2])	pest or weed control at 8966.8 g/ha (Barnyard grass (BG) [3])	pest or weed control at 8966.8 g/ha (Johnson grass (JG) [4])	pest or weed control at 8966.8 g/ha (Crabgrass (CG) [5])	pest or weed control at 8966.8 g/ha (Corn (CN) [6])	pest or weed control at 8966.8 g/ha (Corn (CN) [7])	pest or weed control at 8966.8 g/ha (Cotton (CT) [8])	pest or weed control at 8966.8 g/ha (Turnip (TP) [9])	pest or weed control at 8966.8 g/ha (Turnip (TP) [10])	pest or weed control at 8966.8 g/ha (Bean (BN) [11])	pest or weed control at 8966.8 g/ha (Barnyard grass (BG) [12])	pest or weed control at 8966.8 g/ha (Crabgrass (CG) [13])	pest or weed control at 8966.8 g/ha (Cotton (CT) [14])	pest or weed control at 4483.4 g/ha (Crabgrass (CG) [5])	pest or weed control at 4483.4 g/ha (Turnip (TP) [9])	pest or weed control at 4483.4 g/ha (Turnip (TP) [10])	pest or weed control at 4483.4 g/ha (Bean (BN) [11])	pest or weed control at 4483.4 g/ha (Crabgrass (CG) [13])	pest or weed control at 4483.4 g/ha (Cotton (CT) [14])	also measured
CNC(=O)Nc1nnc(-c2ccccc2Cl)s1 [Example 74]	0%	100%	30%	40%	70%	0%	40%	100%	80%	50%	80%	40%	20%	50%	–	–	–	–	–	–	–
CNC(=O)Nc1nnc(-c2ccc(Cl)cc2Cl)s1 [Example 75]	0%	100%	0%	30%	50%	0%	30%	30%	80%	40%	100%	40%	0%	50%	–	–	–	–	–	–	–
CNC(=O)Nc1nnc(C(C)C)s1 [Example 82]	–	–	–	–	–	–	–	–	–	–	–	–	–	–	50%	80%	20%	60%	30%	80%	pest or weed control at 4483.4 g/ha (Johnson grass (JG) [1]; 4 lb/acre): 0%
Cc1nnc(NC(N)=O)s1 [Example 84, reference compound]	–	–	–	–	–	–	–	–	–	–	–	–	–	–	–	–	–	–	–	–	pest or weed control at 11208.5 g/ha (Johnson grass (JG) [1]; 10 lb/acre): 50%; pest or weed control at 11208.5 g/ha (Crabgrass (CG) [5]; 10 lb/acre): 20%; pest or weed control at 11208.5 g/ha (Turnip (TP) [9]; 10 lb/acre): 80%; pest or weed control at 11208.5 g/ha (Turnip (TP) [10]; 10 lb/acre): 0%; pest or weed control at 11208.5 g/ha (Bean (BN) [11]; 10 lb/acre): 50%; pest or weed control at 11208.5 g/ha (Crabgrass (CG) [13]; 10 lb/acre): 0%; pest or weed control at 11208.5 g/ha (Cotton (CT) [14]; 10 lb/acre): 20%
CNC(=O)Nc1nnc(C2CC2)s1 [Example 85]	–	–	–	–	–	–	–	–	–	–	–	–	–	–	30%	60%	0%	50%	0%	80%	pest or weed control at 4483.4 g/ha (Barnyard grass (BG) [3]; 4 lb/acre): 0%
